Experimental data as given in ChEMBL document CHEMBL3352261, “Discovery of inhibitors of the mitotic kinase TTK based on N-(3-(3-sulfamoylphenyl)-1H-indazol-5-yl)-acetamides and carboxamides” (Bioorg Med Chem, 2014).

Experiments:
A549 = assay: Growth inhibition of human A549 cells after 5 days by SRB assay; format: functional; settings: A549, 120 h
MDA-MB-468 = assay: Growth inhibition of human MDA-MB-468 cells after 5 days by SRB assay; format: functional; settings: MDA-MB-468, 120 h
[1] = Growth inhibition of human HCT116 cells after 5 days by SRB assay; format: functional; settings: HCT-116, 120 h
[2] = target: T1, Dual specificity protein kinase TTK (Homo sapiens, UniProt P33981); assay: Inhibition of SUMO-tagged human TTK (1-275 residues) compound pre-incubated for 15 mins prior ATP addition by MBP-based assay
T1 sequence (P33981 whole entry): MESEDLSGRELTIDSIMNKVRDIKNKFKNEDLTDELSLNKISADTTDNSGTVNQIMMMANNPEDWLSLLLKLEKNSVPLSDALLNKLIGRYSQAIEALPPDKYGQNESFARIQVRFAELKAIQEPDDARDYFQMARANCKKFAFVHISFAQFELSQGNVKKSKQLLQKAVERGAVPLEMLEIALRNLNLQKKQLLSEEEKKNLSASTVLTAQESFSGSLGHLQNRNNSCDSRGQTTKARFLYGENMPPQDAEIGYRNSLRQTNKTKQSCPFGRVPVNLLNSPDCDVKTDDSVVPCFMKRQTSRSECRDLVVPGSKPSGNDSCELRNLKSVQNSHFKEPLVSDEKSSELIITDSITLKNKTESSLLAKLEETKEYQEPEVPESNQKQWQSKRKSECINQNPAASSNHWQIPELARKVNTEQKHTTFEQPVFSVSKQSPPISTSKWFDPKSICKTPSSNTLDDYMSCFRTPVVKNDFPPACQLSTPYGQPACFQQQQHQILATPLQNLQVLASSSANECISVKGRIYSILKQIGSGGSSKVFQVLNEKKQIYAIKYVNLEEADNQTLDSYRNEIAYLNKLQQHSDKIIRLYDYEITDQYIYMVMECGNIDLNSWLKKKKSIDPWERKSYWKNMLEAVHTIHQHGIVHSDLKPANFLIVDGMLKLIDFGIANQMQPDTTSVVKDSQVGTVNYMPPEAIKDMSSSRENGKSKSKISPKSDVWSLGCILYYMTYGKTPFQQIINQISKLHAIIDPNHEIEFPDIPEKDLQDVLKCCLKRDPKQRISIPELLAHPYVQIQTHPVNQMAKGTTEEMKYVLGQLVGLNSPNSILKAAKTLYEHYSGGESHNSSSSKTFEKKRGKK

[3] = target: T1, Dual specificity protein kinase TTK; assay: Inhibition of GST-fused full length human TTK compound pre-incubated for 15 mins prior ATP addition by MBP-based assay

Row | Compound | GI50 (A549) | GI50 (MDA-MB-468) | IC50 [2] | IC50 [3] | GI50 [1]
1 | CC(=O)Nc1ccc2[nH]nc(-c3cccc(S(N)(=O)=O)c3)c2c1 | – | – | 640 nM | – | –
2 | Cc1cccc(CS(=O)(=O)Nc2ccc3[nH]nc(-c4cccc(S(N)(=O)=O)c4)c3c2)c1 | – | – | 330 nM | – | 28000 nM
3 | COc1cc(N2CCC(O)CC2)ccc1Nc1nc(Nc2ccccc2S(=O)(=O)C(C)C)c2cc[nH]c2n1 | – | – | – | 0.37 µM | –
4 | NS(=O)(=O)c1cccc(-c2n[nH]c3cc(-c4ccccc4)ccc23)c1 | – | – | 5400 nM | – | –
5 | NS(=O)(=O)c1ccc(-c2n[nH]c3cccc(Cl)c23)cc1 | – | – | – | 18 µM | –
6 | NS(=O)(=O)c1cccc(-c2n[nH]c3ccc(NC(=O)c4cccs4)cc23)c1 | – | – | 280 nM | – | –
7 | NC(=O)c1cccc(-c2n[nH]c3cccc(Cl)c23)c1 | – | – | – | 17 µM | –
8 | NS(=O)(=O)c1cccc(-c2n[nH]c3cccc(Cl)c23)c1 | – | – | 1900 nM | 1.8 µM | –
9 | O=Cc1ccc2c(-c3cccnc3)n[nH]c2c1 | – | – | – | 12 µM | –
10 | Oc1c2ccccc2c2c3c(cccc13)N=N2 [SP-600125] | – | – | – | 2.5 µM | –
11 | CNC(=O)c1ccc2c(-c3cccc(S(N)(=O)=O)c3)n[nH]c2c1 | – | – | 11000 nM | – | –
12 | NS(=O)(=O)c1cccc(-c2n[nH]c3ccccc23)c1 | – | – | 1600 nM | 2.6 µM | –
13 | NS(=O)(=O)c1cccc(-c2n[nH]c3ccc(OCc4ccccc4)cc23)c1 | – | – | 580 nM | – | –
14 | NS(=O)(=O)c1cccc(-c2n[nH]c3ccc(NC(=O)Nc4ccccc4)cc23)c1 | – | – | 390 nM | – | 41000 nM
15 | CCc1cccc(CC)c1NC(=O)N(C)c1ccc2[nH]nc(-c3cccc(S(N)(=O)=O)c3)c2c1 | – | – | > 50000 nM | – | > 50000 nM
16 | CCc1cccc(CC)c1NS(=O)(=O)Nc1ccc2[nH]nc(-c3cccc(S(N)(=O)=O)c3)c2c1 | – | – | 2600 nM | – | 50000 nM

Row | Compound | GI50 (A549) | GI50 (MDA-MB-468) | IC50 [2] | IC50 [3] | GI50 [1]
17 | NS(=O)(=O)c1cccc(-c2n[nH]c3ccc(OCCc4cccs4)cc23)c1 | – | – | 380 nM | – | 750 nM
18 | COc1cccc2[nH]nc(-c3cccc(S(N)(=O)=O)c3)c12 | – | – | 2300 nM | – | –
19 | NS(=O)(=O)c1cccc(-c2n[nH]c3ccc(CNC(=O)c4ccccc4)cc23)c1 | – | – | 550 nM | – | 700 nM
20 | NS(=O)(=O)c1cccc(-c2n[nH]c3ccc(NC(=O)Cc4ccncc4)cc23)c1 | – | – | 340 nM | – | 50000 nM
21 | NS(=O)(=O)c1cccc(-c2n[nH]c3ccc(NS(=O)(=O)Nc4ccccc4)cc23)c1 | – | – | 710 nM | – | 6890 nM
22 | CC(=O)Nc1ccc2c(-c3cccc(S(N)(=O)=O)c3)n[nH]c2c1 | – | – | 18000 nM | – | –
23 | NS(=O)(=O)c1cccc(-c2n[nH]c3ccc(NC(=O)CCc4ccccc4)cc23)c1 | – | – | 980 nM | – | > 50000 nM
24 | NCc1cccc(-c2n[nH]c3cccc(Cl)c23)c1 | – | – | – | > 50 µM | –
25 | N#Cc1ccc2c(/C=C/c3ccncc3)n[nH]c2c1 | – | – | – | 5 µM | –
26 | NS(=O)(=O)c1cccc(-c2n[nH]c3cc(NC(=O)c4cccs4)ccc23)c1 | – | – | 4300 nM | – | –
27 | Cc1ccccc1NC(=O)Cc1ccc2[nH]nc(-c3cccc(S(N)(=O)=O)c3)c2c1 | – | – | > 5000 nM | – | > 50000 nM
28 | NS(=O)(=O)c1cccc(-c2n[nH]c3cccc(-c4c(F)cccc4F)c23)c1 | – | – | 1400 nM | – | –
29 | NS(=O)(=O)c1cccc(-c2n[nH]c3ccc(NS(=O)(=O)c4cccs4)cc23)c1 | – | – | 340 nM | – | 3400 nM
30 | NS(=O)(=O)c1cccc(-c2n[nH]c3ccc(NC(=O)C4(c5ccccc5)CC4)cc23)c1 | – | – | 310 nM | – | 7300 nM
31 | COc1ccc2[nH]nc(-c3cccc(S(N)(=O)=O)c3)c2c1 | – | – | 600 nM | – | –
32 | NS(=O)(=O)c1cccc(-c2n[nH]c3ccc(-c4ccccc4)cc23)c1 | – | – | 4300 nM | – | –

The remaining compounds from weak to strong by IC50 [2], led by results:

Row | GI50 (A549) | GI50 (MDA-MB-468) | IC50 [2] | IC50 [3] | Compound | GI50 [1]
33 | – | – | 250 nM | – | CN(Cc1ccccc1)C(=O)c1ccc2[nH]nc(-c3cccc(S(N)(=O)=O)c3)c2c1 | 180 nM
34 | – | – | 90 nM | – | NS(=O)(=O)c1cccc(-c2n[nH]c3ccc(NC(=O)Cc4ccccn4)cc23)c1 | 6890 nM
35 | – | – | 90 nM | – | NS(=O)(=O)c1cccc(-c2n[nH]c3ccc(C(=O)NCc4ccccc4)cc23)c1 | 1800 nM
36 | – | – | 80 nM | – | CCc1cccc(CC)c1CNC(=O)c1ccc2[nH]nc(-c3cccc(S(N)(=O)=O)c3)c2c1 | 700 nM
37 | – | – | 61 nM | – | NS(=O)(=O)c1cccc(-c2n[nH]c3ccc(NC(=O)C(c4ccccc4)C4CCCCC4)cc23)c1 (racemic) | 430 nM
38 | – | – | 53 nM | – | NS(=O)(=O)c1cccc(-c2n[nH]c3ccc(NC(=O)C(c4ccccc4)C4CCCC4)cc23)c1 (racemic) | 630 nM
39 | – | – | 47 nM | – | NS(=O)(=O)c1cccc(-c2n[nH]c3ccc(C(=O)NC(c4ccccc4)C4CCCCC4)cc23)c1 (racemic) | 810 nM
40 | – | – | 46 nM | – | CC(C)C(C(=O)Nc1ccc2[nH]nc(-c3cccc(S(N)(=O)=O)c3)c2c1)c1ccccc1 (racemic) | –
41 | – | – | 39 nM | – | NS(=O)(=O)c1cccc(-c2n[nH]c3ccc(NC(=O)Cc4ccccc4)cc23)c1 | 21000 nM
42 | – | – | 35 nM | – | NS(=O)(=O)c1cccc(-c2n[nH]c3ccc(C(=O)NC4(c5ccccc5)CC4)cc23)c1 | 3300 nM
43 | – | – | 33 nM | – | NS(=O)(=O)c1cccc(-c2n[nH]c3ccc(C(=O)NCc4cccs4)cc23)c1 | 1800 nM
44 | 2400 nM | 3200 nM | 30 nM | – | CO[C@@H](C(=O)Nc1ccc2[nH]nc(-c3cccc(S(N)(=O)=O)c3)c2c1)c1ccccc1 | 850 nM
45 | 3600 nM | 2200 nM | 26 nM | – | CO[C@H](C(=O)Nc1ccc2[nH]nc(-c3cccc(S(N)(=O)=O)c3)c2c1)c1ccccc1 | 800 nM
46 | 2500 nM | 2200 nM | 26 nM | – | COC(C(=O)Nc1ccc2[nH]nc(-c3cccc(S(N)(=O)=O)c3)c2c1)c1ccccc1 (racemic) | 1060 nM
47 | – | – | 25 nM | – | Cc1ccccc1CC(=O)Nc1ccc2[nH]nc(-c3cccc(S(N)(=O)=O)c3)c2c1 | 1800 nM
48 | – | – | 24 nM | – | CCC(C(=O)Nc1ccc2[nH]nc(-c3cccc(S(N)(=O)=O)c3)c2c1)c1ccccc1 (racemic) | 1300 nM
49 | – | – | 18 nM | – | Cc1ccccc1CNC(=O)c1ccc2[nH]nc(-c3cccc(S(N)(=O)=O)c3)c2c1 | 1800 nM
50 | – | – | 17 nM | – | CCc1cccc(CC)c1CC(=O)Nc1ccc2[nH]nc(-c3cccc(S(N)(=O)=O)c3)c2c1 | 180 nM
51 | – | – | 16 nM | – | NS(=O)(=O)c1cccc(-c2n[nH]c3ccc(C(=O)NC(c4ccccc4)C4CC4)cc23)c1 (racemic) | –
52 | – | – | 16 nM | – | NS(=O)(=O)c1cccc(-c2n[nH]c3ccc(NC(=O)Cc4cccs4)cc23)c1 | 2900 nM
53 | 3400 nM | 1300 nM | 15 nM | – | CN(C)[C@@H](C(=O)Nc1ccc2[nH]nc(-c3cccc(S(N)(=O)=O)c3)c2c1)c1ccccc1 | 1100 nM
54 | 800 nM | 1400 nM | 14 nM | – | CCOC(C(=O)Nc1ccc2[nH]nc(-c3cccc(S(N)(=O)=O)c3)c2c1)c1ccccc1 (racemic) | 400 nM
55 | 1700 nM | 1400 nM | 12 nM | – | CN(C)C(C(=O)Nc1ccc2[nH]nc(-c3cccc(S(N)(=O)=O)c3)c2c1)c1ccccc1 (racemic) | 660 nM
56 | 830 nM | 840 nM | 11 nM | – | CN(C)[C@H](C(=O)Nc1ccc2[nH]nc(-c3cccc(S(N)(=O)=O)c3)c2c1)c1ccccc1 | 520 nM
57 | 400 nM | 690 nM | 10 nM | – | NS(=O)(=O)c1cccc(-c2n[nH]c3ccc(NC(=O)C(c4ccccc4)N4CCCCC4)cc23)c1 (racemic) | 270 nM
58 | 230 nM | 350 nM | 8.9 nM | – | NS(=O)(=O)c1cccc(-c2n[nH]c3ccc(NC(=O)C(c4ccccc4)N4CCCC4)cc23)c1 (racemic) | 110 nM
59 | – | – | 4 nM | – | NS(=O)(=O)c1cccc(-c2n[nH]c3ccc(C(=O)NC(c4ccsc4)C4CC4)cc23)c1 (racemic) | 610 nM
